# Measurements published in the supplement of paper PMC9663587.
# Key:
# Experiment in all cases: GRmax, 72 h; higher = less effect;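 note: breast cell lines in 384-well plates, nine doses across a 10^4 range, Dye Drop imaging of viable cells vs DMSO and time-zero plates, GR 0 means no net growth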
# BT549 = tested on: BT549
# EVSAT = tested on: EVSAT
# HCC1143 = tested on: HCC1143
# HCC1395 = tested on: HCC1395
# HCC1419 = tested on: HCC1419
# HCC70 = tested on: HCC70
# MCF10A = tested on: MCF10A
# MDAMB231 = tested on: MDAMB231
# PDX1258 = tested on: PDX1258
# SUM1315 = tested on: SUM1315
Structure (SMILES),"GRmax, 72 h (BT549) [GR]","GRmax, 72 h (EVSAT) [GR]","GRmax, 72 h (HCC1143) [GR]","GRmax, 72 h (HCC1395) [GR]","GRmax, 72 h (HCC1419) [GR]","GRmax, 72 h (HCC70) [GR]","GRmax, 72 h (MCF10A) [GR]","GRmax, 72 h (MDAMB231) [GR]","GRmax, 72 h (PDX1258) [GR]","GRmax, 72 h (SUM1315) [GR]"
CO[C@@H](C)Cn1c(=O)n(C)c2cnc3ccc(-c4cncc(C(C)(C)O)c4)cc3c21 (max 10 µM),-0.0177,-0.384,-0.203,-0.0122,-0.769,-0.755,0.108,-0.136,-0.344,-0.216
COc1cccc2c1C(=O)c1c(O)c3c(c(O)c1C2=O)C[C@@](O)(C(=O)CO)C[C@@H]3O[C@H]1C[C@H](N)[C@H](O)[C@H](C)O1 [Doxorubicin] (max 3.162 µM),-0.331,-0.192,-0.251,-0.417,-0.466,-0.779,-0.324,-0.486,-0.493,-0.0635
CC(=O)c1c(C)c2cnc(Nc3ccc(N4CCNCC4)cn3)nc2n(C2CCCC2)c1=O (max 3.162 µM),1.08,0.646,0.282,0.348,0.441,0.936,0.454,0.206,1.02,0.3
Cc1nn(C)c(COc2ccc(N3CCN(S(=O)(=O)N(C)C)CC3)cc2)c1-c1cccc2c(CCCOc3cccc4ccccc34)c(C(=O)O)n(CCN3CCOCC3)c12 (max 10 µM),0.954,0.901,0.672,0.859,0.708,0.938,0.953,0.957,0.919,0.74
CN(C)C/C=C/C(=O)Nc1ccc(C(=O)Nc2cccc(Nc3cc(-c4c[nH]c5ccccc45)ncn3)c2)cc1 [THZ-P1-2] (max 10 µM),0.175,0.76,-0.404,-0.908,-0.578,-0.837,-0.181,-0.691,-0.891,-0.299
CN1CCN(CCOc2cc(OC3CCOCC3)c3c(Nc4c(Cl)ccc5c4OCO5)ncnc3c2)CC1 [Saracatinib/AZD0530] (max 10 µM),0.556,0.0408,0.388,0.12,-0.115,-0.172,0.148,0.28,0.184,0.0846
CC(C)Nc1cc(-c2c[nH]c(C(=O)N[C@H](CO)c3cccc(Cl)c3)c2)c(Cl)cn1 [BVD523] (max 10 µM),0.545,0.695,0.0829,0.253,0.637,0.461,0.185,0.213,0.163,0.207
Cc1cc(Nc2ncc(Cl)c(Nc3ccccc3S(=O)(=O)C(C)C)n2)c(OC(C)C)cc1C1CCNCC1 [Ceritinib/LDK378] (max 10 µM),-0.228,0.646,-0.422,-0.627,-0.867,-0.881,-0.319,-0.333,-0.684,-0.765
NC1(C(=O)N[C@@H](CCO)c2ccc(Cl)cc2)CCN(c2nc[nH]c3nccc2-3)CC1 [AZD5363] (max 10 µM),0.557,-0.441,0.769,0.0739,0.536,-0.292,0.805,1.05,0.321,0.694
CN(C)CC[C@H](CSc1ccccc1)Nc1ccc(S(=O)(=O)NC(=O)c2ccc(N3CCN(Cc4ccccc4-c4ccc(Cl)cc4)CC3)cc2)cc1[N+](=O)[O-] [ABT-737] (max 10 µM),0.936,0.697,0.376,0.861,0.471,-0.0638,0.817,-0.12,0.758,0.306
O=C1NC(=NCc2cccs2)SC1=Cc1ccc2ncccc2c1 [R0-3306] (max 10 µM),-0.0782,-0.27,-0.114,-0.235,0.246,-0.204,-0.0081,0.206,-0.274,-0.252
NC(=O)Nc1cc(-c2cccc(F)c2)sc1C(=O)N[C@H]1CCCNC1 [AZD7762] (max 10 µM),-0.482,-0.319,-0.369,-0.69,-0.0826,-0.7,-0.18,-0.463,-0.453,-0.653
CC(=O)c1c(C)c2cnc(Nc3ccc(N4CCN(CCOCCOCCOCCNC(=O)COc5cccc6c5C(=O)N(C5CCC(=O)NC5=O)C6=O)CC4)cn3)nc2n(C2CCCC2)c1=O (stereo not given) [BSJ-03-123] (max 10 µM),0.0183,0.0652,-0.0159,-0.171,0.165,-0.513,-0.113,-0.181,-0.415,0.236
CC(C)NC[C@@H](C(=O)N1CCN(c2ncnc3c2[C@H](C)C[C@H]3O)CC1)c1ccc(Cl)cc1 [Ipatasertib/GDC0068] (max 10 µM),0.496,-0.311,0.751,0.19,0.505,-0.262,0.647,0.925,0.399,0.607
Nc1ccc(-c2ccc3ncc4ccc(=O)n(-c5cccc(C(F)(F)F)c5)c4c3c2)cn1 [Torin2] (max 1 µM),-0.0209,-0.334,-0.153,-0.142,-0.372,-0.555,0.128,-0.0262,-0.207,-0.0903
Cc1nc(NC(=O)N2CCC[C@H]2C(N)=O)sc1-c1ccnc(C(C)(C)C(F)(F)F)c1 [Alpelisib/BYL719] (max 10 µM),0.684,0.716,0.48,0.637,-0.002,0.0981,0.579,0.69,0.631,0.383
O=C(CCCCCCC(=O)Nc1ccccc1)NO [Vorinostat] (max 10 µM),0.113,-0.497,-0.253,-0.0589,-0.256,-0.476,0.0566,-0.385,-0.0232,-0.0668
O=C(c1cc(Cc2n[nH]c(=O)c3ccccc23)ccc1F)N1CCN(C(=O)C2CC2)CC1 [Olaparib/AZD2281] (max 10 µM),0.543,0.773,0.456,0.0945,0.632,0.719,0.794,0.618,0.577,0.0911
